Patent US20140017187A1, “Use of 5-(7-methoxy-3,3-dimethyl-2,3-dihydro-1-benzoxepin-5-yl)-3-methyl-penta-2,4-dienoic acid as a cosmetic” (Merck Patent GmbH, priority 2008, published 2014)

Tests used:
[1] = Mutagenicity studies (in house data)
[2] = test system: animal models; settings: in vivo
[3] = Phototoxic and photo-allergenic potential (in house data)
[4] = test system: human skin model; test: cDNA microarray gene expression profiling (Affymetrix) of treated skin equivalents, GeneGO MetaCore analysis; type: cell-based
Experimental: One of the advantages of cDNA microarray is the possibility to observe the expression pattern of the whole genes and compare with different conditions. This is the first study to determine the gene expression profiles of Compound-treated human skin. For the analysis of deregulated gene expression induced by substance Compound, treated and control samples from a human skin model were analyzed with Affymetrix oligonucleotide microarrays. Skin has been among the first organs analysed using DNA-Microarrays. In addition, epidermal keratinocytes have been the target of many studies because they respond to a rich variety of inflammatory and immunmodulating cytokines, hormones, vitamins, ultraviolet (UV) light, toxins and physical injury. Altered gene expression after applying substance Compound was analysed with an Affymetrix system.
For gene expression studies skin equivalents were treated with 50 μL of 2 relevant substance Compound with a concentration of c=50 μM in PBS-buffer/DMSO. Buffer-treated skin equivalents served as controls.
A ratio (log 2) value of zero indicates no regulation, whereas positive (log 2) values indicate an upregulation and negative (log 2) values a downregulation of the relevant gene.
The experiment contains 759 genes with the specified threshold (Appendix A)
GeneGO's Metacore (Pathways and Maps) Software.
Enrichment analysis consists of matching gene IDs for the common, similar and unique sets of the uploaded files with gene IDs in functional ontologies in MetaCore. The ontologies include canonical pathway maps, GeneGo cellular processes, GO cellular processes and diseases categories. The degree of “relevance” to different categories for the uploaded datasets is defined by p-values, so that the lower p-value gets higher priority.

[5] = test system: epidermal differentiation proteins; test: In vitro expression of epidermal differentiation proteins; type: cell-based; settings: own unpublished results
[6] = cDNA microarray, skin equivalents, 50 μM

COc1ccc2c(c1)C(/C=C/C(C)=C/C(=O)O)=CC(C)(C)CO2 [Compound, 5-(7-methoxy-3,3-dimethyl-2,3-dihydro-1-benzoxepin-5-yl)-3-methyl-penta-2,4-dienoic acid]
genotoxicity [1]: not genotoxic
toxic effect in animal models [2]: no toxic effect
phototoxicity [3]: no phototoxic
Ratio as Log2 value, gene CASP14 ([4]; Caspase 14 precursor, skin equivalents, 50 μM, vs buffer-treated control): 1.44 Log2
Ratio as Log2 value, gene UGCG ([4]; Ceramide glucosyltransferase, skin equivalents, 50 μM, vs buffer-treated control): 0.7977 Log2
Ratio as Log2 value, gene CDSN ([4]; Corneodesmosin precursor, skin equivalents, 50 μM, vs buffer-treated control): 1.207 Log2
Ratio as Log2 value, gene ELF3 ([4]; ETS-related transcription factor Elf-3, skin equivalents, 50 μM, vs buffer-treated control): −1.46 Log2
Ratio as Log2 value, gene EMP1 ([4]; Epithelial membrane protein 1, skin equivalents, 50 μM, vs buffer-treated control): 1.278 Log2
Ratio as Log2 value, gene KRT34 ([4]; Keratin, type I cuticular Ha4, skin equivalents, 50 μM, vs buffer-treated control): 1.695 Log2
Ratio as Log2 value, gene KRT10 ([4]; Keratin, type I cytoskeletal 10, skin equivalents, 50 μM, vs buffer-treated control): −0.6644 Log2
Ratio as Log2 value, gene KRT13 ([4]; Keratin, type I cytoskeletal 13, skin equivalents, 50 μM, vs buffer-treated control): −0.8963 Log2
Ratio as Log2 value, gene LAMA3 ([4]; Laminin subunit alpha-3 precursor, skin equivalents, 50 μM, vs buffer-treated control): 0.6648 Log2
Ratio as Log2 value, gene LAMB3 ([4]; Laminin subunit beta-3 precursor, skin equivalents, 50 μM, vs buffer-treated control): 1.168 Log2
Ratio as Log2 value, gene LCE2B ([4]; Late cornified envelope protein 2B, skin equivalents, 50 μM, vs buffer-treated control): 1.326 Log2
Ratio as Log2 value, gene PTHLH ([4]; Parathyroid hormone-related protein, skin equivalents, 50 μM, vs buffer-treated control): −0.7916 Log2
Ratio as Log2 value, gene S100a7 ([4]; Protein S100-A7, skin equivalents, 50 μM, vs buffer-treated control): −0.6784 Log2
Ratio as Log2 value, gene OVOL1 ([4]; Putative transcription factor Ovo-like 1, skin equivalents, 50 μM, vs buffer-treated control): 1.064 Log2
expression of FABP4 and Leptin ([4]; cDNA microarray data): significantly upregulated
expression of Caspase 14, P57/KIP2 [4, 6]: significantly upregulated
expression of Fibronectin, Elastin and Laminin [4, 6]: upregulated significantly
expression of HAS2 gene (hyaluronan synthase 2) [4, 6]: upregulated
expression of IL-6, TNF-alpha induced proteins, IL-8, CCL8, CCL2, CXCL2, CXCL12, CXCL3, CXCL5 and ICAM-1 [4, 6]: significantly downregulated
expression of MMP genes MMP9, MMP14, MMP11 [4, 6]: down regulated
expression of RXRA (retinoid X receptors A) [4, 6]: upregulation
expression of S100A7, S100A7A and S100A12 [4, 6]: downregulated
expression of SCARB, INSIG2, ATP binding cassette and VLDLR genes [4, 6]: upregulation
Compound vs. Control, ratio Log(2) value ([4]; gene ABCG1 (ABCG1_HUMAN, ATP-binding cassette sub-family G member 1)): 1.297 Log(2)
Compound vs. Control, ratio Log(2) value ([4]; gene CASP14 (CASPE_HUMAN, Caspase-14 precursor)): 1.44 Log(2)
Compound vs. Control, ratio Log(2) value ([4]; gene CCL2 (CCL2_HUMAN, C-C motif chemokine 2 precursor)): −1.731 Log(2)
Compound vs. Control, ratio Log(2) value ([4]; gene CCL8 (CCL8_HUMAN, C-C motif chemokine 8 precursor)): −2.505 Log(2)
Compound vs. Control, ratio Log(2) value ([4]; gene CDKN1C (CDN1C_HUMAN, Cyclin-dependent kinase inhibitor 1C)): 0.8737 Log(2)
Compound vs. Control, ratio Log(2) value ([4]; gene CERK (CERK1_HUMAN, Ceramide kinase)): 0.729 Log(2)
Compound vs. Control, ratio Log(2) value ([4]; gene CLDN17 (CLD17_HUMAN, Claudin-17)): 2.19 Log(2)
Compound vs. Control, ratio Log(2) value ([4]; gene COL4A3BP (C43BP_HUMAN, Collagen type IV alpha-3-binding protein)): 1.233 Log(2)
Compound vs. Control, ratio Log(2) value ([4]; gene CXCL2 (MIP2A_HUMAN, Macrophage inflammatory protein 2-alpha precursor)): −1.267 Log(2)
Compound vs. Control, ratio Log(2) value ([4]; gene CXCL3 (MIP2B_HUMAN, Macrophage inflammatory protein 2-beta precursor)): −0.723 Log(2)
Compound vs. Control, ratio Log(2) value ([4]; gene CXCL5 (CXCL5_HUMAN, C-X-C motif chemokine 5 precursor)): −0.8263 Log(2)
Compound vs. Control, ratio Log(2) value ([4]; gene CXCL12 (SDF1_HUMAN, Stromal cell-derived factor 1 precursor)): −0.8377 Log(2)
Compound vs. Control, ratio Log(2) value ([4]; gene EGFR (EGFR_HUMAN, Epidermal growth factor receptor precursor)): 0.9876 Log(2)
Compound vs. Control, ratio Log(2) value ([4]; gene ELF3 (ELF3_HUMAN, ETS-related transcription factor Elf-3)): −1.46 Log(2)
Compound vs. Control, ratio Log(2) value ([4]; gene ELN (ELN_HUMAN, Elastin precursor)): 0.7751 Log(2)
Compound vs. Control, ratio Log(2) value ([4]; gene EMP1 (EMP1_HUMAN, Epithelial membrane protein 1)): 1.278 Log(2)
Compound vs. Control, ratio Log(2) value ([4]; gene EMR2 (EMR2_HUMAN, EGF-like module-containing mucin-like hormone receptor-like 2 precursor)): 1.286 Log(2)
Compound vs. Control, ratio Log(2) value ([4]; gene FABP4 (FABPA_HUMAN, Fatty acid-binding protein, adipocyte)): 2.125 Log(2)
Compound vs. Control, ratio Log(2) value ([4]; gene FGF11 (FGF11_HUMAN, Fibroblast growth factor 11)): 0.9322 Log(2)
Compound vs. Control, ratio Log(2) value ([4]; gene FLNB (FLNB_HUMAN, Filamin-B)): 0.6681 Log(2)
Compound vs. Control, ratio Log(2) value ([4]; gene FN1 (FINC_HUMAN, Fibronectin precursor)): 1.364 Log(2)
Compound vs. Control, ratio Log(2) value ([4]; gene GPC4 (GPC4_HUMAN, Glypican-4 precursor)): 0.7558 Log(2)
Compound vs. Control, ratio Log(2) value ([4]; gene GPC6 (GPC6_HUMAN, Glypican-6 precursor)): 0.6711 Log(2)
Compound vs. Control, ratio Log(2) value ([4]; gene GPX7 (GPX7_HUMAN, Glutathione peroxidase 7 precursor)): 0.8162 Log(2)
Compound vs. Control, ratio Log(2) value ([4]; gene HAS2 (HAS2_HUMAN, Hyaluronan synthase 2)): 0.8154 Log(2)
Compound vs. Control, ratio Log(2) value ([4]; gene ICAM1 (ICAM1_HUMAN, Intercellular adhesion molecule 1 precursor)): −1.612 Log(2)
Compound vs. Control, ratio Log(2) value ([4]; gene IL6 (IL6_HUMAN, Interleukin-6 precursor)): −1.09 Log(2)
Compound vs. Control, ratio Log(2) value ([4]; gene IL6ST (IL6RB_HUMAN, Interleukin-6 receptor subunit beta precursor)): −1.628 Log(2)
Compound vs. Control, ratio Log(2) value ([4]; gene IL8 (IL8_HUMAN, Interleukin-8 precursor)): −0.6883 Log(2)
Compound vs. Control, ratio Log(2) value ([4]; gene INSIG2 (INSI2_HUMAN, Insulin-induced gene 2 protein)): 0.6645 Log(2)
Compound vs. Control, ratio Log(2) value ([4]; gene ITGB5 (ITB5_HUMAN, Integrin beta-5 precursor)): 0.7305 Log(2)
Compound vs. Control, ratio Log(2) value ([4]; gene ITIH5 (ITIH5_80760, inter-alpha (globulin) inhibitor H5)): 1.192 Log(2)
Compound vs. Control, ratio Log(2) value ([4]; gene LAMA3 (LAMA3_HUMAN, Laminin subunit alpha-3 precursor)): 0.6648 Log(2)
Compound vs. Control, ratio Log(2) value ([4]; gene LAMB3 (LAMB3_HUMAN, Laminin subunit beta-3 precursor)): 1.168 Log(2)
Compound vs. Control, ratio Log(2) value ([4]; gene LAMC1 (LAMC1_HUMAN, Laminin subunit gamma-1 precursor)): 0.7744 Log(2)
Compound vs. Control, ratio Log(2) value ([4]; gene LEP (LEP_HUMAN, Leptin precursor)): 3.891 Log(2)
Compound vs. Control, ratio Log(2) value ([4]; gene LEPR (LEPR_HUMAN, Leptin receptor precursor)): 0.7216 Log(2)
Compound vs. Control, ratio Log(2) value ([4]; gene MMP9 (MMP9_HUMAN, Matrix metalloproteinase-9 precursor)): −0.8347 Log(2)
Compound vs. Control, ratio Log(2) value ([4]; gene MMP11 (MMP11_HUMAN, Stromelysin-3 precursor)): −1.085 Log(2)
Compound vs. Control, ratio Log(2) value ([4]; gene MMP14 (MMP14_HUMAN, Matrix metalloproteinase-14 precursor)): −0.6909 Log(2)
Compound vs. Control, ratio Log(2) value ([4]; gene PLOD2 (PLOD2_HUMAN, Procollagen-lysine,2-oxoglutarate 5-dioxygenase 2 precursor)): 1.455 Log(2)
Compound vs. Control, ratio Log(2) value ([4]; gene RXRA (RXRA_HUMAN, Retinoic acid receptor RXR-alpha)): 0.7793 Log(2)
Compound vs. Control, ratio Log(2) value ([4]; gene S100A7 (S10A7_HUMAN, Protein S100-A7)): −0.6784 Log(2)
Compound vs. Control, ratio Log(2) value ([4]; gene S100A7A (S1A7A_HUMAN, Protein S100-A7A)): −2.659 Log(2)
Compound vs. Control, ratio Log(2) value ([4]; gene S100A12 (S10AC_HUMAN, Protein S100-A12)): −0.7202 Log(2)
Compound vs. Control, ratio Log(2) value ([4]; gene SCARB1 (SCRB1_HUMAN, Scavenger receptor class B member 1)): 0.8349 Log(2)
Compound vs. Control, ratio Log(2) value ([4]; gene TGFA (TGFA_HUMAN, Protransforming growth factor alpha precursor)): 0.8031 Log(2)
Compound vs. Control, ratio Log(2) value ([4]; gene UGCG (CEGT_HUMAN, Ceramide glucosyltransferase)): 0.7977 Log(2)
Compound vs. Control, ratio Log(2) value ([4]; gene VLDLR (VLDLR_HUMAN, Very low-density lipoprotein receptor precursor)): 0.9666 Log(2)
effect on GPC6 and S100A7 genes compared with old skin ([4]; old skin (literature): S100A7 upregulated, GPC6 downregulated): opposite effect
expression of epidermal differentiation proteins [5]: increased expression
